For assay [1], the target named is JAK1 (recombinant purified GST-tagged catalytic domain) (Homo sapiens (Human), UniProt P23458). As to the kind of experiment: Jak Biochemical HTRF Assay (JAK1). Conditions: [ATP] 31.8 μM. The method in brief: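 HTRF kinase format: compounds pre-equilibrated with recombinant GST-tagged JAK1 or JAK2 catalytic domain, then ATP started a 120 min room-temperature reaction on a common peptide substrate. Phosphopeptide detected via Eu-pY20/streptavidin-Dylight 650 after EDTA quench; percent inhibition versus log concentration fitted (4-parameter) to give IC50.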
JAK1 (recombinant purified GST-tagged catalytic domain), sequence (P23458 875-1153): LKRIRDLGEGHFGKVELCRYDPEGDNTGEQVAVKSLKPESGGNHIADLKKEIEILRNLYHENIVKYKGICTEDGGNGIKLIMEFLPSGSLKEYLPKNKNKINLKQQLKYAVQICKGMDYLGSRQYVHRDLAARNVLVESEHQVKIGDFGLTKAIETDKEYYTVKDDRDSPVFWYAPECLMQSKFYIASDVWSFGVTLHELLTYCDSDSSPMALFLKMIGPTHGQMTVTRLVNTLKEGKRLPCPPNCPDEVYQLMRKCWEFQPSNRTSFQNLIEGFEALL
On the technique in general: Time-resolved FRET reads energy transfer from a long-lived donor to a nearby acceptor.

Assay [2] addresses JAK2 (recombinant purified GST-tagged catalytic domain) (Homo sapiens (Human), UniProt O60674). The assay is described as follows: Jak Biochemical HTRF Assay (JAK2). The settings on record: [ATP] 8.5 μM.

For orientation: IC50 means the concentration at which inhibition is half-maximal.

JAK2 (recombinant purified GST-tagged catalytic domain), sequence (O60674 849-1124): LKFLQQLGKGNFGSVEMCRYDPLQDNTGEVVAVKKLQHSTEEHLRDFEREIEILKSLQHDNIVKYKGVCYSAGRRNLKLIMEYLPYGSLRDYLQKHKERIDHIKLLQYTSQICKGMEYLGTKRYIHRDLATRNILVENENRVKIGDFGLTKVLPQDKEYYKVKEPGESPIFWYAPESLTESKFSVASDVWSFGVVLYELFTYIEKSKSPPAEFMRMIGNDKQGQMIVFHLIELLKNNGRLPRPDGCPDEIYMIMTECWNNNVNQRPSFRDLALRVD

For the compound `CC(c1ccc(Nc2nn([C@]3(CC#N)CCCOC3)c3cc[nH]c(=O)c23)cc1)N1CCCC1` (single isomer, unassigned) [Example 5-201, {(3S)-3-[4-oxo-3-({4-[(1R or 1S)-1-pyrrolidin-1-ylethyl]phenyl}amino)-4,5-dihydro-1H-pyrazolo[4,3-c]pyridin-1-yl]tetrahydro-2H-pyran-3-yl}acetonitrile], the IC50 in assay [1] worked out at 0.49 nM; in assay [2], 0.27 nM.

Regarding `CC(C)(C)NC(c1ccc(Nc2nn([C@]3(CC#N)CCCOC3)c3cc[nH]c(=O)c23)cc1)C(F)(F)F` (single isomer, unassigned) [Example 5-189, {(3S)-3-[3-({4-[(1R or 1S)-1-(tert-butylamino)-2,2,2-trifluoroethyl]phenyl}amino)-4-oxo-4,5-dihydro-1H-pyrazolo [4,3-c]pyridin-1-yl]tetrahydro-2H-pyran-3-yl}acetonitrile], the results for the IC50 in assay [1] and in assay [2] were 0.14 nM and 0.17 nM, respectively.

For the compound `CC(C)(C)OC(=O)[C@@H]1CC[C@@](CC#N)(n2nc(Nc3ccc([C@H](N)C(F)(F)F)cc3)c3c(=O)[nH]ccc32)CO1` (single isomer, unassigned) [Example 5-53, (2S,5S)-tert-butyl 5-(3-((4-((S or R)-1-amino-2,2,2-trifluoroethyl)phenyl)amino)-4-oxo-4,5-dihydro-1H-pyrazolo[4,3-c]pyridin-1-yl)-5-(cyanomethyl) tetrahydro-2H-pyran-2-carboxylate], the IC50 in assay [1] is 0.19 nM; in assay [2], 0.57 nM.

As to `CCNC(c1ccc(Nc2nn([C@]3(CC#N)CC[C@@H](C(=O)OC(C)(C)C)OC3)c3cc[nH]c(=O)c23)cc1)C(F)(F)F` (single isomer, unassigned) [Example 5-207, (2S,5S)-tert-butyl 5-(cyanomethyl)-5-(3-((4-((R or S)-1-(ethylamino)-2,2,2-trifluoroethyl)phenyl)amino)-4-oxo-4,5-dihydro-1H-pyrazolo[4,3-c]pyridin-1-yl)tetrahydro-2H-pyran-2-carboxylate], the half-maximal inhibitory concentration (IC50) stood at 0.19 nM in assay [1] and 0.26 nM in assay [2].

Regarding `N#CC[C@@]1(n2nc(Nc3ccc(C4(C(F)(F)F)CC4)cc3)c3c(=O)[nH]ccc32)CCCOC1` [Example 5-224, (S)-2-(3-(4-oxo-3-((4-(1-(trifluoromethyl)cyclopropyl)phenyl)amino)-4,5-dihydro-1H-pyrazolo[4,3-c]pyridin-1-yl)tetrahydro-2H-pyran-3-yl)acetonitrile], the IC50 in assay [1] turned out to be 0.36 nM; in assay [2], 3 nM.

As to `CN(C)S(=O)(=O)c1ccc(Nc2nn(C3(CC#N)CCN(Cc4c(F)ccc(F)c4F)CC3)c3cc[nH]c(=O)c23)cc1` [Example 8-11, 4-({1-[4-(cyanomethyl)-1-(2,3,6-trifluorobenzyl)piperidin-4-yl]-4-oxo-4,5-dihydro-1H-pyrazolo[4,3-c]pyridin-3-yl}amino)-N,N-dimethylbenzenesulfonamide], the 50% inhibitory concentration (IC50) is 0.24 nM in assay [1] and 0.28 nM in assay [2].

On to `N#CC[C@]1(n2nc(Nc3ccc(C#N)cc3)c3c(=O)[nH]ccc32)CCOC1` (single isomer, unassigned) [Example 5-240, 4-({1-[(3S or 3R)-3-(cyanomethyl)tetrahydrofuran-3-yl]-4-oxo-4,5-dihydro-1H-pyrazolo[4,3-c]pyridin-3-yl}amino)benzonitrile], for which the results for the half-inhibitory concentration (IC50) in assay [1] and in assay [2] were 13 nM and 79.9 nM, respectively.

Regarding `CN(C)S(=O)(=O)c1ccc(Nc2nn(C3(CC#N)CCN(C(=O)Oc4ccc(F)cc4)CC3)c3cc[nH]c(=O)c23)cc1` [Example 10-3, 4-fluorophenyl 4-(cyanomethyl)-4-(3-((4-(N,N-dimethylsulfamoyl)phenyl)amino)-4-oxo-4,5-dihydro-1H-pyrazolo[4,3-c]pyridin-1-yl)piperidine-1-carboxylate], the IC50 in assay [1] was determined as 0.27 nM; in assay [2], 0.97 nM.

In the case of `Cc1cc(Nc2nn([C@]3(CC#N)CC[C@@H](C(=O)OC(C)(C)C)OC3)c3cc[nH]c(=O)c23)ccc1C(=O)N1CCSC1C` (single isomer, unassigned) [Example 5-156, (2S,5S)-tert-butyl 5-(cyanomethyl)-5-(3-((3-methyl-4-((S or R)-2-methylthiazolidine-3-carbonyl)phenyl)amino)-4-oxo-4,5-dihydro-1H-pyrazolo[4,3-c]pyridin-1-yl)tetrahydro-2H-pyran-2-carboxylate], the IC50 in assay [1] amounted to 0.17 nM; in assay [2], 0.3 nM.

Consider `N#CC[C@@]1(n2nc(Nc3ccc([C@]4(C(F)(F)F)CCCCN4)cc3)c3c(=O)[nH]ccc32)CCOC[C@@H]1F` (single isomer, unassigned) [Example 5-265, 2-((3R,4R or 3S,4S)-3-fluoro-4-(4-oxo-3-((4-((S or R)-2-(trifluoromethyl)piperidin-2-yl)phenyl)amino)-4,5-dihydro-1H-pyrazolo[4,3-c]pyridin-1-yl)tetrahydro-2H-pyran-4-yl)acetonitrile], for which the IC50 in assay [1] came out at 0.05 nM; in assay [2], 0.04 nM.

For the compound `N#CC[C@]1(n2nc(Nc3ccnc(F)c3)c3c(=O)[nH]ccc32)CCCC[C@H]1F` [Example 5-152, 2-((1R,2R)-2-fluoro-1-(3-((2-fluoropyridin-4-yl)amino)-4-oxo-4,5-dihydro-1H-pyrazolo[4,3-c]pyridin-1-yl)cyclohexyl)acetonitrile], the values for the IC50 in assay [1] and in assay [2] were 0.09 nM and 0.68 nM, respectively.

For the compound `CN(C)S(=O)(=O)c1ccc(Nc2nn(C3(CC#N)CCN(C(=O)OCC(F)(F)F)CC3)c3cc[nH]c(=O)c23)cc1` [Example 12, 2,2,2-trifluoroethyl 4-(cyanomethyl)-4-(3-((4-(N,N-dimethylsulfamoyl)phenyl)amino)-4-oxo-4,5-dihydro-1H-pyrazolo[4,3-c]pyridin-1-yl)piperidine-1-carboxylate], the IC50 in assay [1] was determined as 0.11 nM; in assay [2] it was 0.24 nM.

`CC(C)(C)OC(=O)N1CCC(CC#N)(n2nc(Nc3ccc4c(c3)CN(C(C)(C)C)S4(=O)=O)c3c(=O)[nH]ccc32)CC1` [Example 5-23, tert-butyl 4-{3-[(2-tert-butyl-1,1-dioxido-2,3-dihydro-1,2-benzisothiazol-5-yl)amino]-4-oxo-4,5-dihydro-1H-pyrazolo[4,3-c]pyridin-1-yl}-4-(cyanomethyl)piperidine-1-carboxylate]: the IC50 in assay [1] was 0.24 nM; in assay [2], 0.34 nM.

For the compound `CC(C)(C)OC(=O)[C@@H]1CC[C@@](CC#N)(n2nc(Nc3ccc4c(c3)CN(C3CCCCC3)C4=O)c3c(=O)[nH]ccc32)CO1` [Example 5-101, (2S,5S)-tert-butyl 5-(cyanomethyl)-5-(3-((2-cyclohexyl-1-oxoisoindolin-5-yl)amino)-4-oxo-4,5-dihydro-1H-pyrazolo[4,3-c]pyridin-1-yl)tetrahydro-2H-pyran-2-carboxylate], the IC50 worked out at 0.18 nM in assay [1] and 0.4 nM in assay [2].

As for `Cc1cc(Nc2nn(C3(CC#N)CCN(c4ccc(C#N)cn4)CC3)c3cc[nH]c(=O)c23)ccc1C(=O)N1CCSCC1` [Example 15-5, 6-(4-(cyanomethyl)-4-(3-((3-methyl-4-(thiomorpholine-4-carbonyl)phenyl)amino)-4-oxo-4,5-dihydro-1H-pyrazolo[4,3-c]pyridin-1-yl)piperidin-1-yl)nicotinonitrile], the IC50 in assay [1] was determined as 0.15 nM; in assay [2] it was 0.17 nM.

`CO[C@@H](c1ccc(Nc2nn(C3(CC#N)CCN(C(=O)OC(C)(C)C)CC3)c3cc[nH]c(=O)c23)cc1)C(F)(F)F` (single isomer, unassigned) [Example 21-10, tert-butyl 4-(cyanomethyl)-4-[4-oxo-3-({4-[(1S or 1R)-2,2,2-trifluoro-1-methoxyethyl]phenyl}amino)-4,5-dihydro-1H-pyrazolo[4,3-c]pyridin-1-yl]piperidine-1-carboxylate]: the figures for the IC50 in assay [1] and in assay [2] were 0.97 nM and 1.95 nM, respectively.

Take `Cc1ccc2cc(Nc3nn([C@]4(CC#N)CCCOC4)c4cc[nH]c(=O)c34)ccc2n1` [Example 5-226, (S)-2-(3-(3-((2-methylquinolin-6-yl)amino)-4-oxo-4,5-dihydro-1H-pyrazolo [4,3-c]pyridin-1-yl)tetrahydro-2H-pyran-3-yl)acetonitrile]: the values for the IC50 in assay [1] and in assay [2] were 0.11 nM and 2.94 nM, respectively.

Consider `CC(C)(C)OC(=O)N1CC(CC#N)(n2nc(Nc3ccc(F)cc3)c3c(=O)[nH]ccc32)C1` [Example 4-3, tert-butyl 3-(cyanomethyl)-3-(3-((4-fluorophenyl)amino)-4-oxo-4,5-dihydro-1H-pyrazolo[4,3-c]pyridin-1-yl)azetidine-1-carboxylate], for which the figures for the IC50 in assay [1] and in assay [2] were 2.64 nM and 36 nM, respectively.

Turning to `CC(c1c(F)cccc1F)N1CCC(CC#N)(n2nc(Nc3ccc(S(=O)(=O)N(C)C)cc3)c3c(=O)[nH]ccc32)CC1` (stereo not drawn) [Example 8-17, 4-((1-(4-(cyanomethyl)-1-(1-(2,6-difluorophenyl)ethyl)piperidin-4-yl)-4-oxo-4,5-dihydro-1H-pyrazolo[4,3-c]pyridin-3-yl)amino)-N,N-dimethylbenzenesulfonamide], the IC50 in assay [1] came out at 1.4 nM; in assay [2] it was 3.26 nM.

As to `N#CC[C@]1(n2nc(Nc3ccc4nccc(F)c4c3)c3c(=O)[nH]ccc32)CCOC1` (single isomer, unassigned) [Example 5-246, [(3S or 3R)-3-{3-[(4-fluoroquinolin-6-yl)amino]-4-oxo-4,5-dihydro-1H-pyrazolo[4,3-c]pyridin-1-yl}tetrahydrofuran-3-yl]acetonitrile], the results for the IC50 in assay [1] and in assay [2] were 16.8 nM and 172 nM, respectively.

As to `CC(F)(F)C(=O)N1CCC(CC#N)(n2nc(Nc3ccc4c(c3)CN(C(C)(C)C)S4(=O)=O)c3c(=O)[nH]ccc32)CC1` [Example 5-26, 2-(4-(3-((2-(tert-butyl)-1,1-dioxido-2,3-dihydrobenzo [d]isothiazol-5-yl)amino)-4-oxo-4,5-dihydro-1H-pyrazolo[4,3-c]pyridin-1-yl)-1-(2,2-difluoro-propanoyl)piperidin-4-yl) acetonitrile], the half-inhibitory concentration (IC50) in assay [1] amounted to 0.09 nM; in assay [2], 0.1 nM.

The record behind these values is US9957264B2 (Merck Sharp & Dohme Corp., priority 2013, dated 2018).
